Here are results for 10 molecules from ChEMBL document CHEMBL3272282, “Adrenergic agents. 6. Synthesis and potential beta-adrenergic agonist activity of some meta-substituted p-hydroxyphenylethanolamines related to salbutamol” (J Med Chem, 1977).

Series [1] is filed under the species Cavia porcellus. Put plainly: Intrinsic activity at beta-adrenoceptor in guinea pig trachea assessed as relaxation of spontaneously contracted tracheal smooth muscle relative to papaverine. In kind it is tissue-based.
The species entered for series [2] is Cavia porcellus. As to the kind of experiment: Agonist activity at beta-adrenoceptor in guinea pig trachea assessed as relaxation of spontaneously contracted tracheal smooth muscle. The series is classed as tissue-based.
A short description of series [3]: Intrinsic activity at beta-adrenoceptor in guinea pig atria assessed as cardiac stimulant activity by measuring change in rate of contraction of right atrial muscle relative to isoproterenol. The series is classed as ADME, tissue-based, Cavia porcellus, Cardiac atrium.
Series [4] can be described thus: Separation ratio of ED25 at beta-adrenoceptor in guinea pig atria to ED50 for beta-adrenoceptor in guinea pig trachea. Details: species or system Cavia porcellus.
Series [5] can be described thus: Agonist activity at beta-adrenoceptor in guinea pig atria assessed as cardiac stimulant activity by measuring change in rate of contraction of right atrial muscle. The series is classed as tissue-based, Cavia porcellus, Cardiac atrium.
Series [6] in a line: Agonist activity at beta-adrenoceptor in guinea pig atria assessed as cardiac stimulant activity by measuring change in rate of contraction of right atrial muscle at 0.12 mM. The series is classed as tissue-based, Cavia porcellus, Cardiac atrium. Particulars: 120 µM.
Series [7] is described as follows: Agonist activity at beta-adrenoceptor in guinea pig atria assessed as cardiac stimulant activity by measuring change in rate of contraction of right atrial muscle at 14 uM. The series is classed as tissue-based, Cavia porcellus, Cardiac atrium.
The species entered for series [8] is Cavia porcellus. Put plainly: Agonist activity at beta-adrenoceptor in guinea pig trachea assessed as relaxation of spontaneously contracted tracheal smooth muscle at 12 uM. In kind it is tissue-based. Details: scale not given: the % may be the effect or the level left.
A short description of series [9]: Agonist activity at beta-adrenoceptor in guinea pig atria assessed as cardiac stimulant activity by measuring change in rate of contraction of right atrial muscle at 0.11 mM. The series is classed as tissue-based, Cavia porcellus, Cardiac atrium. Conditions: 110 µM.
Series [10] is described as follows: Agonist activity at beta-adrenoceptor in guinea pig atria assessed as cardiac stimulant activity by measuring change in rate of contraction of right atrial muscle at 92 uM. The series is classed as tissue-based, Cavia porcellus, Cardiac atrium.
A short description of series [11]: Agonist activity at beta-adrenoceptor in guinea pig atria assessed as cardiac stimulant activity by measuring change in rate of contraction of right atrial muscle at 56 uM. The series is classed as tissue-based, Cavia porcellus, Cardiac atrium.
Series [12] is filed under the species Cavia porcellus. As to the kind of experiment: Agonist activity at beta-adrenoceptor in guinea pig trachea assessed as relaxation of spontaneously contracted tracheal smooth muscle at 11 uM. In kind it is tissue-based. Also noted: scale not given: the % may be the effect or the level left.

As for `CC(C)NCC(O)c1ccc(O)c(O)c1` (configuration not stated) [ISOPROTERENOL], in the series filed under Cavia porcellus [1], the Ratio came to 1. In the series filed under Cavia porcellus [2], the ED50 was determined as 7.1 nM.
As for `CC(C)(C)NCC(O)c1ccc(O)c(C(O)CO)c1` (configuration not stated), the results for the Ratio (in series [3]; in series [4]; in the series filed under Cavia porcellus [1]) were 0.3, 303 and 1, respectively. Further, the ED25 in series [5] stood at 3 ×10⁻⁵ M. Besides, in the series listed under Cavia porcellus [2], the ED50 stood at 9.9 ×10⁻⁸ M.
On to `CC(C)(C)NCC(O)c1ccc(O)c(O)c1` (configuration not stated) [COLTEROL], for which the values for the Ratio (in series [3]; in series [4]; in the series filed under Cavia porcellus [1]) were 1, 5.5 and 1, respectively. Also, in series [5], the ED25 turned out to be 7.1 nM. In addition, in the series listed under Cavia porcellus [2], the ED50 turned out to be 1.3 nM.
As to `COCC(O)c1cc(C(O)CNC(C)(C)C)ccc1O` (configuration not stated), the Activity in series [6] is on record as 23%. For the same molecule, the Ratio in series [4] stood at 236; in the series listed under Cavia porcellus [1] it was 0.9. The ED25 in series [5] came out at 1.2 ×10⁻⁴ M. In addition, the ED50 in the series listed under Cavia porcellus [2] turned out to be 5.3 ×10⁻⁷ M.
As for `CC(C)(C)NCC(O)c1ccc(O)c(C(O)CS(C)(=O)=O)c1` (configuration not stated), the values for the Activity (in [7]; in the series listed under Cavia porcellus [8]) were 0% and 34%, respectively. Moreover, the ED25 in [5] stood at 1.4 ×10⁻⁵ M. The ED50 in the series listed under Cavia porcellus [2] came out at 1.2 ×10⁻⁵ M.
Take `COC(CO)c1cc(C(O)CNC(C)(C)C)ccc1O` (configuration not stated): the Ratio in series [4] was over 320; in the series listed under Cavia porcellus [1] it was 0.7. The Activity in series [9] came out at 0%. Besides, in the series filed under Cavia porcellus [2], the ED50 was determined as 3.4 ×10⁻⁷ M.
Consider `CC(C)(C)NCC(O)c1ccc(O)c(CO)c1` (configuration not stated) [ALBUTEROL], for which the Ratio in series [3] worked out at 0.7; in series [4] it was 28; in the series filed under Cavia porcellus [1] it was 1. The ED50 in the series listed under Cavia porcellus [2] worked out at 1.1 ×10⁻⁸ M.
As for `CC(O)c1cc(C(O)CNC(C)(C)C)ccc1O` (configuration not stated), the Ratio turned out to be 0.3 in series [3], 289 in series [4] and 1 in the series listed under Cavia porcellus [1]. Further, the ED25 in series [5] was found to be 5200 nM. In addition, in the series filed under Cavia porcellus [2], the ED50 was found to be 1.8 ×10⁻⁸ M.
With `CC(C)(C)NCC(O)c1ccc(O)c(C(O)CNC(C)(C)C)c1` (configuration not stated), the Ratio is over 6 in [4] and 0.9 in the series listed under Cavia porcellus [1]. The ED25 in [5] came out at 9.2 ×10⁻⁵ M. In addition, the Activity in series [10] was 14%. Further, the ED50 in the series filed under Cavia porcellus [2] worked out at 1.5 ×10⁻⁵ M.
In the case of `CC(C)(C)NCC(O)c1ccc(O)c(C(C)(C)O)c1` (configuration not stated), the Activity in series [11] was found to be 8%; in the series listed under Cavia porcellus [12], 30%. The ED50 in the series filed under Cavia porcellus [2] was 1.1 ×10⁻⁵ M.
